Experimental data published in BindingDB's records for doi:10.1016/j.bmcl.2005.02.006 (Wyeth Research, 2005).

Key:
[1] = In vitro effective concentration against beta amyloid protein 40 in ELISA
[2] = In vitro inhibition of amyloid precursor protein 695 activity in CHO cells expressing human APP
[3] = In vitro effective concentration against beta amyloid protein 42 in ELISA

| EC50 [1] [µM] | EC50 [2] [µM] | EC50 [3] [µM] | Compound |
| --- | --- | --- | --- |
| 48.6 |  |  | CCOC(=O)N1CCC(c2ccccc2C)(S(=O)(=O)c2ccccc2)CC1 [4-Benzenesulfonyl-4-o-tolyl-piperidine-1-carboxylic acid ethyl ester] |
| 62.7 |  |  | CCOC(=O)N1CCC(c2ccccc2OC)(S(=O)(=O)c2ccccc2)CC1 [4-Benzenesulfonyl-4-(2-methoxy-phenyl)-piperidine-1-carboxylic acid ethyl ester] |
| 50.6 |  |  | CCOC(=O)N1CCC(c2ccccc2OC)(S(=O)(=O)c2ccc(OC)cc2)CC1 [4-(4-Methoxy-benzenesulfonyl)-4-(2-methoxy-phenyl)-piperidine-1-carboxylic acid ethyl ester] |
| 3.5 | 1.03 | 5 | CCOC(=O)N1CCC(c2ccccc2OC)(S(=O)(=O)c2ccc(Cl)cc2)CC1 [ethyl 4-(4-chlorophenylsulfonyl)-4-(2-methoxyphenyl)piperidine-1-carboxylate] |
| 0.1 |  |  | CCCNC(=O)OC[C@@H](C)N(c1cc(Cl)ccc1CO)S(=O)(=O)c1ccc(Cl)cc1 [BMCL18464 Compound 14] |
| 2.7 |  | 3.7 | CCOC(=O)N1CCC(c2ccccc2C)(S(=O)(=O)c2ccc(Cl)cc2)CC1 [4-(4-Chloro-benzenesulfonyl)-4-o-tolyl-piperidine-1-carboxylic acid ethyl ester] |
| 24.5 |  |  | CCOC(=O)N1CCC(c2ccccc2C)(S(=O)(=O)c2ccc(OC)cc2)CC1 [4-(4-Methoxy-benzenesulfonyl)-4-o-tolyl-piperidine-1-carboxylic acid ethyl ester] |
| 97 |  |  | CCOC(=O)N1CCC(c2ccccc2)(S(=O)(=O)c2ccc(OC)cc2)CC1 [4-(4-Methoxy-benzenesulfonyl)-4-phenyl-piperidine-1-carboxylic acid ethyl ester] |
| 12.2 |  | 20.9 | CCOC(=O)N1CCC(c2ccccc2)(S(=O)(=O)c2ccc(Cl)cc2)CC1 [ethyl 4-[(4-chlorobenzene)sulfonyl]-4-phenylpiperidine-1-carboxylate] |
